From ChEMBL document CHEMBL1201862, “PubChem BioAssay data set” (2004)
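A five-concentration, 48-hour dose response in 96-well plates underlies each endpoint, interpolated linearly between surrounding concentrations. GI50: concentration for 50% inhibition of growth.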 The source made the active and inactive calls. Cut-off read from the data, not from the text of the source: active = GI50 up to about 1.1 µM and inactive = higher.

Tests used:
Test in all cases: NCI-60 cell line screen, 48 h
786-0 = system: 786-0
A498 = system: A498
A549 = system: A549
ACHN = system: ACHN
BT-549 = system: BT-549
CAKI-1 = system: CAKI-1
CCRF-CEM = system: CCRF-CEM
COLO 205 = system: COLO 205
DU-145 = system: DU-145
EKVX = system: EKVX
HCC 2998 = system: HCC 2998
HCT-116 = system: HCT-116
HCT-15 = system: HCT-15
HL-60 = system: HL-60
HOP-62 = system: HOP-62
HOP-92 = system: HOP-92
HT-29 = system: HT-29
Hs-578T = system: Hs-578T
IGROV-1 = system: IGROV-1
K562 = system: K562
KM12 = system: KM12
LOX IMVI = system: LOX IMVI
M14 = system: M14
MCF7 = system: MCF7
MDA-MB-231 = system: MDA-MB-231
MDA-MB-435 = system: MDA-MB-435
MDA-N = system: MDA-N
MOLT-4 = system: MOLT-4
Malme-3M = system: Malme-3M
NCI-H226 = system: NCI-H226
NCI-H23 = system: NCI-H23
NCI-H460 = system: NCI-H460
NCI-H522 = system: NCI-H522
NCI/ADR-RES = system: NCI/ADR-RES
OVCAR-3 = system: OVCAR-3
OVCAR-4 = system: OVCAR-4
OVCAR-5 = system: OVCAR-5
OVCAR-8 = system: OVCAR-8
PC-3 = system: PC-3
RPMI-8226 = system: RPMI-8226
RXF 393 = system: RXF 393
SF-268 = system: SF-268
SF-295 = system: SF-295
SF-539 = system: SF-539
SK-MEL-28 = system: SK-MEL-28
SK-MEL-2 = system: SK-MEL-2
SK-MEL-5 = system: SK-MEL-5
SK-OV-3 = system: SK-OV-3
SN12C = system: SN12C
SNB-19 = system: SNB-19
SNB-75 = system: SNB-75
SR = system: SR
SW-620 = system: SW-620
T47D = system: T47D
TK-10 = system: TK-10
U-251 = system: U-251
UACC-257 = system: UACC-257
UACC-62 = system: UACC-62
UO-31 = system: UO-31
DMS-114 = system: DMS-114
DMS-273 = system: DMS-273
KM-20L2 = system: KM-20L2
LXFL 529 = system: LXFL 529
M19-MEL = system: M19-MEL
SNB-78 = system: SNB-78

Measured: GI50

[N-]=[N+]=Nc1c(C=O)c(=O)n2c3c(cccc13)CCC2
3.27 µM: HCT-15
inactive: 786-0 3.93 µM | A498 13.6 µM | A549 20.8 µM | ACHN 3.44 µM | BT-549 2.65 µM | CAKI-1 2.94 µM | COLO 205 2.3 µM | DU-145 5.15 µM | EKVX 11.1 µM | HCC 2998 16.9 µM | HCT-116 3.15 µM | HOP-62 18 µM | HOP-92 2.15 µM | HT-29 10 µM | Hs-578T 15.3 µM | IGROV-1 11.9 µM | K562 2.82 µM | KM12 17.5 µM | LOX IMVI 10.3 µM | M14 1.95 µM | MCF7 2.75 µM | MDA-MB-231 11.3 µM | MDA-MB-435 6.89 µM | MDA-N 5.81 µM | MOLT-4 1.24 µM | Malme-3M 1.84 µM | NCI-H226 11.9 µM | NCI-H23 4.26 µM | NCI-H460 21.2 µM | NCI-H522 2.13 µM | NCI/ADR-RES 7.76 µM | OVCAR-3 2.28 µM | OVCAR-4 2.24 µM | OVCAR-5 7.24 µM | OVCAR-8 3.03 µM | PC-3 12.1 µM | RPMI-8226 2.87 µM | RXF 393 1.76 µM | SF-268 14.4 µM | SF-295 25.9 µM | SF-539 16.1 µM | SK-MEL-28 11.5 µM | SK-MEL-2 > 10 µM | SK-MEL-5 13.8 µM | SK-OV-3 19 µM | SN12C 15.4 µM | SNB-19 20 µM | SNB-75 14.2 µM | SW-620 1.39 µM | T47D 4.86 µM | TK-10 4.74 µM | U-251 13.6 µM | UACC-257 4.53 µM | UACC-62 12.8 µM | UO-31 2.49 µM
active: CCRF-CEM 0.778 µM | HL-60 0.608 µM | SR 1.1 µM

COC1C=CC23c4cc5c(cc4C(O)OC2CN(C)C3C1)OCO5 (stereo not given)
active: COLO 205 1.08 µM | HCT-116 1.07 µM | HL-60 1.08 µM | M14 0.746 µM | SF-539 1.08 µM | SK-MEL-5 0.434 µM
inactive: 786-0 1.64 µM | A498 3.1 µM | A549 2.4 µM | ACHN 1.32 µM | CAKI-1 2.98 µM | CCRF-CEM 1.84 µM | DMS-114 1.26 µM | DMS-273 1.4 µM | EKVX 3.55 µM | HCC 2998 2.29 µM | HOP-62 2.54 µM | IGROV-1 4.72 µM | K562 1.77 µM | KM-20L2 1.29 µM | KM12 2.13 µM | LOX IMVI 1.29 µM | LXFL 529 1.45 µM | M19-MEL 1.52 µM | MOLT-4 1.34 µM | Malme-3M 1.9 µM | NCI-H226 1.64 µM | NCI-H23 2.94 µM | NCI-H460 2.69 µM | NCI-H522 2 µM | OVCAR-3 1.76 µM | OVCAR-4 1.35 µM | OVCAR-5 3.34 µM | OVCAR-8 2.16 µM | RPMI-8226 2.56 µM | SF-268 3.37 µM | SF-295 1.69 µM | SN12C 2.35 µM | SNB-19 1.65 µM | SR 1.17 µM | SW-620 1.59 µM | UACC-257 1.77 µM | UACC-62 4.13 µM | UO-31 2.69 µM

CC(C)=CCCC1(C)C=Cc2c(ccc3c2[nH]c2cc(O)c(C)cc23)O1 (stereo not given)
inactive: DMS-114 7.14 µM | OVCAR-3 4.75 µM | OVCAR-4 7.94 µM | OVCAR-5 19.4 µM | OVCAR-8 3.81 µM | RPMI-8226 6.59 µM | SNB-78 13 µM
